In this assay the test system is colon cancer-derived cell line HCT116. Kind of assay: cells. Conditions: Homo sapiens, HCT-116, 96 h, read-out: HCT116 (CRC) IC50.

The structures appear in SMILES notation. pIC50: −log10 of the molar value.
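Further: proliferation measured with WST-8, IC50 derived by least-squares fitting.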

Usually pIC50 stands for the negative decadic logarithm of the IC50, by convention in mol/L. In the case of `Cc1nc2ccc(-n3ncc(C(=O)c4cc5ccc(C6CCN(C)CC6)cc5[nH]4)c3N)cc2[nH]1` [Compound 2], the pIC50 is 5.57.

On to `Cc1nc2cc(-n3ncc(C(=O)c4cc5ccc(CN6CCOC[C@@H]6C)cc5[nH]4)c3N)ccc2[nH]1` [Compound 3], for which the negative-log IC50 (pIC50) was 5.54.

Regarding `Cc1nc2ccc(-n3ncc(C(=O)c4cc5cc(CN6CCCC(F)C6)ccc5[nH]4)c3N)cc2[nH]1` (stereo not drawn) [Compound 4], the pIC50 was 5.02.

`Cc1nc2ccc(-n3ncc(C(=O)c4cc5cc(CN6C(C)CCC6C)ccc5[nH]4)c3N)cc2[nH]1` (stereo not drawn) [Compound 5]: the pIC50 was 4.96.

Take `Cc1nc2cc(-n3ncc(C(=O)c4cc5ccc(OCC6(C)COC6)cc5[nH]4)c3N)ccc2[nH]1` [Compound 6]: the pIC50 is 4.92.

As to `COCCN(CCOC)Cc1ccc2cc(C(=O)c3cnn(-c4ccc5[nH]c(C)nc5c4)c3N)[nH]c2c1` [Compound 8], the pIC50 is 4.96.

On to `Cc1nc2cc(-n3ncc(C(=O)c4cc5ccc(OCCN6CCN(C)CC6)cc5[nH]4)c3N)ccc2[nH]1` [Compound 9], for which the pIC50 was 5.20.

Turning to `Cc1nc2ccc(-n3ncc(C(=O)c4cc5ccc(C#N)cc5[nH]4)c3N)cc2[nH]1` [Compound 10], the pIC50 was less than 4.30.

Turning to `Cc1nc2ccc(-n3ncc(C(=O)c4cc5cc(C6CCN(C(C)C)CC6)ccc5[nH]4)c3N)cc2[nH]1` [Compound 11], the pIC50 was 5.24.

For `Cc1nc2cc(-n3ncc(C(=O)c4cc5ccc(C6CC6)cc5[nH]4)c3N)ccc2[nH]1` [Compound 12], the pIC50 was 5.14.

Consider `Cc1nc2ccc(-n3ncc(C(=O)c4cc5ccc(-c6cccs6)cc5[nH]4)c3N)cc2[nH]1` [Compound 13], for which the pIC50 was 6.41.

`Cc1nc2cc(-n3ncc(C(=O)c4cc5cc6c(cc5[nH]4)OCCO6)c3N)ccc2[nH]1` [Compound 14]: the pIC50 was 5.51.

As to `Cc1nc2cc(-n3ncc(C(=O)c4cc5ccccc5[nH]4)c3N)c(F)cc2[nH]1` [Compound 15], the pIC50 is 4.72.

Regarding `CCCCc1ccc2cc(C(=O)c3cnn(-c4ccc5nc(C)[nH]c5c4)c3N)[nH]c2c1` [Compound 16], the pIC50 is 4.77.

On to `Cc1nc2ccc(-n3ncc(C(=O)c4cc5cc(C6CCN(C7CCCC7)CC6)ccc5[nH]4)c3N)cc2[nH]1` [Compound 17], for which the pIC50 is 5.42.

On to `COc1ccc2cc(C(=O)c3cnn(-c4ccc5[nH]c(C)nc5c4)c3N)[nH]c2c1` [Compound 18], for which the pIC50 was 4.96.

In the case of `C#CCN(C)Cc1ccc2cc(C(=O)c3cnn(-c4ccc5[nH]c(C)nc5c4)c3N)[nH]c2c1` [Compound 19], the pIC50 is 5.60.

As for `Cc1nc2cc(-n3ncc(C(=O)c4cc5ccc(-c6ccc(N7CCOCC7)nc6)cc5[nH]4)c3N)ccc2[nH]1` [Compound 20], the negative-log IC50 (pIC50) is less than 4.30.

Turning to `Cc1nc2cc(-n3ncc(C(=O)c4cc5ccc(OC6COC6)cc5[nH]4)c3N)ccc2[nH]1` [Compound 21], the negative logarithm of the IC50 (pIC50) was 4.68.

In the case of `Cc1nc2cc(-n3ncc(C(=O)c4cc5ccc(I)cc5[nH]4)c3N)ccc2[nH]1` [Compound 22], the pIC50 was 5.92.

Regarding `CN1CCC(c2ccc3[nH]c(C(=O)c4cnn(-c5ccc6nc(C(F)F)[nH]c6c5)c4N)cc3c2)CC1` [Compound 23], the pIC50 is 5.00.

In the case of `Cc1nc2cc(-n3ncc(C(=O)c4cc5ccc(-c6cnn(C)c6)cc5[nH]4)c3N)ccc2[nH]1` [Compound 24], the pIC50 was less than 4.30.

In the case of `COCCOc1ccc2[nH]c(C(=O)c3cnn(-c4ccc5[nH]c(C)nc5c4)c3N)cc2c1` [Compound 25], the pIC50 was less than 4.00.

For the molecule `Cc1nc2cc(-n3ncc(C(=O)c4cc5ccc(-c6ccc(F)cn6)cc5[nH]4)c3N)ccc2[nH]1` [Compound 26], the pIC50 was 4.96.

Regarding `Cc1nc2ccc(-n3ncc(C(=O)c4cc5ccc(CO)cc5[nH]4)c3N)cc2[nH]1` [Compound 27], the negative-log IC50 (pIC50) was 4.60.

In the case of `Cc1nc2ccc(-n3ncc(C(=O)c4cc5cc(-c6cccnc6)ccc5[nH]4)c3N)cc2[nH]1` [Compound 28], the pIC50 is 4.68.

Regarding `Cc1cc(C)c2cc(C(=O)c3cnn(-c4ccc5[nH]c(C)nc5c4)c3N)[nH]c2c1` [Compound 29], the pIC50 was 5.07.

`CSc1ccc2cc(C(=O)c3cnn(-c4ccc5[nH]c(C)nc5c4)c3N)[nH]c2c1` [Compound 30]: the pIC50 was 4.89.

Take `Cc1nc2cc(-n3ncc(C(=O)c4cc5cc(C6CCN(C(C)C)CC6)c(C(F)(F)F)cc5[nH]4)c3N)ccc2[nH]1` [Compound 31]: the pIC50 was 5.70.

For `Cc1nc2ccc(-n3ncc(C(=O)c4cc5cc(C6=CCNCC6)ccc5[nH]4)c3N)cc2[nH]1` [Compound 32], the pIC50 was 5.06.

On to `Cc1nc2cc(-n3ncc(C(=O)c4cc5cc(C(C)(C)C)ccc5[nH]4)c3N)ccc2[nH]1` [Compound 33], for which the pIC50 was 5.36.

Take `Cc1nc2cc(-n3ncc(C(=O)c4cc5ccc(-c6cncc(S(C)(=O)=O)c6)cc5[nH]4)c3N)ccc2[nH]1` [Compound 35]: the pIC50 is 5.11.

Turning to `Cc1nc2ccc(-n3ncc(C(=O)c4[nH]c5ccccc5c4F)c3N)cc2[nH]1` [Compound 36], the pIC50 is 5.32.

As to `COc1cc(OC)c2cc(C(=O)c3cnn(-c4ccc5[nH]c(C)nc5c4)c3N)[nH]c2c1` [Compound 37], the pIC50 is 5.05.

Take `CCCCOc1ccc2[nH]c(C(=O)c3cnn(-c4ccc5[nH]c(C)nc5c4)c3N)cc2c1` [Compound 38]: the pIC50 is 5.21.

As to `Cc1nc2cc(-n3ncc(C(=O)c4cc5cc(OCC6CC6)ccc5[nH]4)c3N)ccc2[nH]1` [Compound 39], the pIC50 was 4.96.

Turning to `Cc1nc2cc(-n3ncc(C(=O)c4cc5ncccc5[nH]4)c3N)ccc2[nH]1` [Compound 40], the pIC50 was 4.72.

Take `Cc1ccc(-c2ccc3cc(C(=O)c4cnn(-c5ccc6[nH]c(C)nc6c5)c4N)[nH]c3c2)cn1` [Compound 41]: the pIC50 is less than 4.70.

For `Cc1nc2cc(-n3ncc(C(=O)c4cc5c(C)cccc5[nH]4)c3N)ccc2[nH]1` [Compound 42], the pIC50 is 4.82.

`COc1ncccc1-c1ccc2cc(C(=O)c3cnn(-c4ccc5[nH]c(C)nc5c4)c3N)[nH]c2c1` [Compound 43]: the pIC50 was less than 4.30.

Turning to `Cc1nc2cc(-n3ncc(C(=O)c4cc5ccc(Br)cc5[nH]4)c3N)ccc2[nH]1` [Compound 44], the pIC50 was 5.00.

`Cc1nc2cc(-n3ncc(C(=O)c4cc5ccc(OCCN6CCOCC6)cc5[nH]4)c3N)ccc2[nH]1` [Compound 45]: the pIC50 is 5.03.

In the case of `Cc1nc2cc(-n3ncc(C(=O)c4cc5cc(CN6CCN(S(C)(=O)=O)CC6)ccc5[nH]4)c3N)ccc2[nH]1` [Compound 47], the pIC50 is 4.85.

For the molecule `Cc1nc2cc(-n3ncc(C(=O)c4cc5ccc(O)cc5[nH]4)c3N)ccc2[nH]1` [Compound 48], the pIC50 was 4.43.

For `Cc1nc2ccc(-n3ncc(C(=O)c4cc5ccc(Cl)cc5[nH]4)c3N)cc2[nH]1` [Compound 50], the pIC50 was 4.47.

As to `COc1ccccc1-c1ccc2cc(C(=O)c3cnn(-c4ccc5[nH]c(C)nc5c4)c3N)[nH]c2c1` [Compound 51], the pIC50 was 5.29.

`Cc1nc2cc(-n3ncc(C(=O)c4cc5ccc(-c6ccc(C(F)(F)F)cn6)cc5[nH]4)c3N)ccc2[nH]1` [Compound 52]: the pIC50 is 5.00.

Regarding `Cc1nc2cc(-n3ncc(C(=O)c4cc5cc6c(cc5[nH]4)OC(F)(F)O6)c3N)ccc2[nH]1` [Compound 53], the pIC50 is less than 4.70.

As to `Cc1nc2cc(-n3ncc(C(=O)c4cc5cc(C(=O)N6CCC(N7CCCCC7)CC6)ccc5[nH]4)c3N)ccc2[nH]1` [Compound 54], the pIC50 is less than 4.70.

Turning to `Cc1nc2ccc(-n3ncc(C(=O)c4cc5cc(C6CCNCC6)c(F)cc5[nH]4)c3N)cc2[nH]1` [Compound 55], the pIC50 was 4.80.

Regarding `Cc1nc2cc(-n3ncc(C(=O)c4cc5c(OC(C)C)cccc5[nH]4)c3N)ccc2[nH]1` [Compound 56], the pIC50 was 4.72.

Take `Cc1nc2cc(-n3ncc(C(=O)c4cc5cc(C(=O)N6CCN(CC(F)(F)F)CC6)ccc5[nH]4)c3N)ccc2[nH]1` [Compound 57]: the pIC50 was less than 4.70.

In the case of `COc1cc2[nH]c(C(=O)c3cnn(-c4ccc5[nH]c(C)nc5c4)c3N)cc2cc1Cl` [Compound 58], the pIC50 was 4.92.

`Cc1nc2cc(-n3ncc(C(=O)c4cc5ccc(OCc6ccccc6)cc5[nH]4)c3N)ccc2[nH]1` [Compound 59]: the pIC50 is 5.48.

`Cc1nc2cc(-n3ncc(C(=O)c4cc5cc(C(=O)N6CCCC(F)(F)C6)ccc5[nH]4)c3N)ccc2[nH]1` [Compound 60]: the pIC50 is 4.77.

As to `Cc1nc2cc(-n3ncc(C(=O)c4cc5cc(SC(F)(F)F)ccc5[nH]4)c3N)ccc2[nH]1` [Compound 61], the negative logarithm of the IC50 (pIC50) was 5.04.

Take `Cc1nc2cc(-n3ncc(C(=O)c4cc5cc(F)c(C(F)(F)F)cc5[nH]4)c3N)ccc2[nH]1` [Compound 62]: the pIC50 is 5.77.

On to `C#Cc1cccc2[nH]c(C(=O)c3cnn(-c4ccc5[nH]c(C)nc5c4)c3N)cc12` [Compound 63], for which the pIC50 was 4.89.

Take `Cc1nc2cc(-n3ncc(C(=O)c4cc5ccc(-c6ccc(F)cc6)cc5[nH]4)c3N)ccc2[nH]1` [Compound 64]: the negative-log IC50 (pIC50) is 5.92.

For `Cc1nc2cc(-n3ncc(C(=O)c4cc5cc(-n6ccnc6)ccc5[nH]4)c3N)ccc2[nH]1` [Compound 65], the pIC50 is 4.64.

`Cc1nc2cc(-n3ncc(C(=O)c4cc5ccc(NS(C)(=O)=O)cc5[nH]4)c3N)ccc2[nH]1` [Compound 66]: the pIC50 is less than 4.30.

As to `Cc1nc2cc(-n3ncc(C(=O)c4cc5ccc(OC6CCOCC6)cc5[nH]4)c3N)ccc2[nH]1` [Compound 67], the pIC50 is 5.14.

For the molecule `Cc1nc2cc(-n3ncc(C(=O)c4cc5cc(C(F)(F)F)ccc5[nH]4)c3N)ccc2[nH]1` [Compound 68], the pIC50 is less than 5.70.

Turning to `Cc1nc2cc(-n3ncc(C(=O)c4cc5cc(Oc6ccccc6)ccc5[nH]4)c3N)ccc2[nH]1` [Compound 69], the pIC50 was 5.37.

For `Cc1nc2cc(-n3ncc(C(=O)c4cc5cc(F)c(Br)cc5[nH]4)c3N)ccc2[nH]1` [Compound 70], the negative logarithm of the IC50 (pIC50) is 5.05.

Turning to `Cc1nc2cc(-n3ncc(C(=O)c4cc5cc(Cc6ccccc6)ccc5[nH]4)c3N)ccc2[nH]1` [Compound 71], the pIC50 is 5.42.

Source of the values: patent US10689705B2, “FGFR3 fusion gene and pharmaceutical drug targeting same” (Chugai Seiyaku Kabushiki Kaisha, priority 2012, dated 2020).
